Source: patent publication US10807951B2, “mTORC1 modulators” (THE REGENTS OF THE UNIVERSITY OF CALIFORNIA, priority 2017, dated 2020)

How the values were obtained:
LAMTOR5 = LAMTOR5 (Homo sapiens, UniProt O43504); test: Rhodamine labeling with alkyne probe on purified Lamtor-Rag complexes; assay type: binding; conditions: preliminary experiments
Text: (§1) FIGS. 8A-8B. (FIG. 8A) Structures of CC 2-11 and CC 1-44. CC 2-11 bears an alkyne group on a separate ring from the cysteine-reactive warhead. The presence of the alkyne group enables us to directly label the modified target protein (e.g. Lamtor5) with biotin or rhodamine groups, either in gels or in complex proteomes. […] Thus, CC 2-11 allows precise mapping of the target cysteines as well as accurate identification of the off-targets.
as §1, with “We also synthesized a” for “FIGS. 8A-8B. (FIG. 8A) Structures of”, “1-44 derivative, named” for “2-11 and”, “2-11, which” for “1-44. CC 2-11”, “warhead (FIG. 8A).” for “warhead.”, “will allow” for “allows”

[1] = in vivo; cited from earlier work

| Structure (SMILES) | direct rhodamine labeling of target protein by alkyne probe (LAMTOR5) | bioavailability [1] |
| --- | --- | --- |
| C#Cc1cc(COc2cccc3c2ccn3C(=O)C=C)cc(C(F)(F)F)c1 [CC 2-11] | enables rhodamine labeling of a 28 KDa band corresponding to Lamtor5 | – |
| CO[C@H]1C[C@@H]2CC[C@@H](C)[C@@](O)(O2)C(=O)C(=O)N2CCCC[C@H]2C(=O)O[C@H]([C@H](C)C[C@@H]2CC[C@@H](O)[C@H](OC)C2)CC(=O)[C@H](C)/C=C(\C)[C@@H](O)[C@@H](OC)C(=O)[C@H](C)C[C@H](C)/C=C/C=C/C=C/1C [rapamycin] | – | good |
